Measured values: patent publication US6710075B2, “Therapeutic compounds and methods” (The Government of the State of Sarawak, Malaysia, priority 2000, dated 2004)
pIC50: −log10 of the molar value.

Experiments:
A549 cells [1] = assay: Effect on cell cycle arrest and cell death induced by anti-cancer agents, DNA content analysis; assay type: cell-based; settings: 3 days
Protocol: A549 cells in 6 well plates were cultured for 3 days in the presence or absence of 10 nM Compound A together with 0.1 μM camptothecin, 10 μM vinblastin, 1 μM paclitaxel or 1 μM staurosporine as indicated. The cells were then collected and fixed in 70% ethanol prior to staining with propidium iodide and DNA content determined by flow cytometry. The numbers indicate the % of cells in the various cell cycle phases relative to all cells with ≧2N DNA content and also the % dead cells (ie. subdiploid ≦2N cells) to the left of the dotted marker that arose during the culture period.
This was examined in more detail using DNA content analysis to specifically measure cell cycle progression and cell death. In this experiment in addition to camptothecin and paclitaxel cells were also treated with vinblastin (another microtubule inhibitor) (Sorger et al., 1997, supra) and staurosporine (a kinase inhibitor) (Gescher, Crit Rev Oncol Hematol., 2000, 34(2):127-35).

THP-1 cells [2] = assay: WST-1 reduction by THP-1 cells; assay type: cell-based, human
Description: (§1) (a) Compounds A and B were identified from a bark sample of Aglaia leptantha through their ability to inhibit production of Tumour Necrosis Factor-α (TNF-α) by THP-1 human promonocytic leukemia cells (Tsuchiya, et al, Int. J. Cancer, 1980, 26(2):171-6) activated with lipopolysaccharide (LPS). Table 4 summarises the results comparing the activity of Compounds A and B for inhibition of TNF-α production to their effects on general cell metabolism measured using WST-1 reduction, DNA synthesis and protein synthesis assays for THP-1 cells. […] For comparison, the effects of Compounds A and B on A549 lung epithelial carcinoma cells (Leiber et al, Int. J. Cancer, 1976, 17(1)-62-70) were also measured and the data is also included in Table 4.

A549 [3] = assay: Cytostatic activity, relative cell number by YOYO-1 DNA dye; assay type: cell-based, human; settings: Homo sapiens, 72 h; A549, lung; read-out: GI50 (3 day cultures)
Protocol: (§2) (b) Compound A was assessed for cytotoxic and cytostatic activity against a panel of cell lines derived from a variety of human tumour types in addition to THP-1 and A549 cells (Table 5). These included K562 leukemic cells (Lozzio and Lozzio, 1975, Blood 45:321-34), PC3 prostate tumour cells (Kaighn et al., 1979, Invest. Urol. 17:16-23) and SF268 glioblastoma cells (Westphal et al, 1985, Biochem. Biophys. Res. Commun., 132:284-9). […] However, the cytotoxic potency of Compound A increased dramatically after 6 days of culture for the K562, A549 and SF268 cells.

THP-1 cells [4] = assay: Cell death as loss of membrane integrity, YOYO-1 uptake; assay type: cell-based; settings: Homo sapiens, THP-1, 72 h, read-out: LC50
Description: (§3) (a) Table 8 compares the cytostatic and cytotoxic effects of Compound A to three previously identified 1H-cyclopenta[b]benzofuran lignans that lack the dioxanyloxy group at the C6-position. The reference compounds are: Rocaglaol (Reference Compound 1) (Ohse et al., J Nat Prod, 1996, 59(7):650-52); 4′-Demethoxy-3′,4′-methylenedioxyrocaglaol (Reference Compound 2) and Methyl 4′-demethoxy-3′,4′-methylenedioxyrocaglate (Reference Compound 3) (Lee et al., Chem Biol Interact, 1998, 115(3):215-28).

A549 cells [5] = assay: as above; assay type: cell-based; settings: Homo sapiens, A549, 72 h, read-out: LC50
Description: as §3

A549 cells [6] = assay: Senescence-associated β-galactosidase (SA-β-gal) activity staining; assay type: cell-based, human; settings: A549, 250 nM doxorubicin, 10 days
Protocol: A549 cells were seeded at 10,000 cell/well in 6 well plates in the presence or absence of varying concentrations of Compound A (10-50 nM) or 250 nM doxorubicin for 10 days prior to their processing and staining overnight for senescence-associated β-galactosidase activity as described previously (Dimri et al., 1995, Proc Natl Acad Sci USA 1995 92(20):9363-7). […] PC, phase contrast microscopy. BF, bright field microscopy Magnification×200.
This was evaluated further by measuring senescence-associated β-galactosidase (SA-β-gal) activity, a biomarker previously described to correlate well with senescence of human cells (Dimri et al., Proc Natl Acad Sci USA 1995 92(20):9363-7). […] Therefore, in addition to Compound A A549 cells were also treated with doxorubicin as an experimental control.

THP-1 cells [7] = assay: Protein synthesis, [14C]-leucine uptake, THP-1 cells; assay type: cell-based, human; settings: 48 hours
Description: as §1

A549 cells [8] = assay: DNA synthesis, [14C]-thymidine uptake, A549 cells; assay type: cell-based, human; settings: 72 hours
Description: as §1

A549 cells [9] = assay: Protein synthesis, [14C]-leucine uptake, A549 cells; assay type: cell-based, human; settings: 72 hours
Description: as §1

[10] = test system: Intercellular Adhesion Molecule-1 (ICAM-1); assay: IL-1-induced ICAM-1 surface expression by A549 cells (Delfia); assay type: cell-based, human; settings: 24 hours, read-out: IC50 ICAM-1 Production
Description: as §1

THP-1 cells [11] = assay: DNA synthesis, [14C]-thymidine uptake, THP-1 cells; assay type: cell-based, human; settings: 48 hours
Description: as §1

K562 leukemic cells = assay: DNA content analysis (cell cycle) of K562 leukemic cells; assay type: cell-based, human; settings: K562, 10-15 nM, 3 days
Protocol: K562 cells were cultured for 3 days with the indicated concentration of Compounds A or B then collected and fixed in 70% ethanol prior to staining with propidium iodide and DNA content determined by flow cytometry. The numbers indicate the % of cells in G0/G1, S and G2/M phases of the cell cycle respectively relative to all cells with ≧2N DNA content.

[12] = test system: Tumour Necrosis Factor-α (TNF-α); assay: Inhibition of TNF-α production by LPS-activated THP-1 cells (sandwich ELISA); assay type: cell-based, human; settings: 18 hours
Description: as §1

A549 [13] = assay: Cytotoxic activity, sub-diploid DNA content by flow cytometry (propidium iodide); assay type: cell-based, human; settings: A549, 6 days; read-out: LC50 (6 day cultures)
Protocol: as §2

THP-1 = assay: as above; assay type: cell-based, human; settings: THP-1, 6 days; read-out: LC50 (6 day cultures)
Protocol: as §2

K562 = assay: as above; assay type: cell-based, human; settings: K562, 6 days; read-out: LC50 (6 day cultures)
Protocol: as §2

SF268 = assay: as above; assay type: cell-based, human; settings: SF268, 6 days; read-out: LC50 (6 day cultures)
Protocol: as §2

PC3 = assay: as above; assay type: cell-based, human; settings: PC3, 6 days; read-out: LC50 (6 day cultures)
Protocol: as §2

THP-1 cells [14] = assay: DNA content analysis (cell cycle and viability) of THP-1 cells; assay type: cell-based, human; settings: THP-1, 1000 nM paclitaxel, 2 days
Protocol: THP-1 cells were cultured for 2 days with the indicated concentration of Compound A or 1000 nM paclitaxel then collected and fixed in 70% ethanol prior to staining with propidium iodide and DNA content determined by flow cytometry. The numbers indicate the % of cells in the various cell cycle phases relative to all cells with ≧2N DNA content and also the % dead cells (ie. subdiploid≦2N cells) to the left of the marker (the vertical line) that arose during the culture period.

[15] = THP-1 leukemic cells, cultured with compound for 3 days, read-out: IC50 (reduction of WST-1)

With `CC[C@@]1(O)C(=O)OCc2c1cc1n(c2=O)Cc2cc3ccccc3nc2-1` [camptothecin, reference compound] the “cell cycle phase accumulation” value (A549 cells [1]; A549, 0.1 μM camptothecin) was “accumulation of cells in S phase of the cell cycle”.
For `COC(=O)[C@H]1[C@@H](O)[C@@]2(O)c3c(OC)cc(OC4OC(C(COC(C)=O)OC(C)=O)COC4OC)cc3O[C@@]2(c2ccc(OC)cc2)[C@@H]1c1ccccc1` (stereo partly drawn) [Compound B′], the pIC50 (THP-1 cells [2]; [15]) was 9.15.
In the case of `COC(=O)C1C(O)C2(O)c3c(OC)cc(OC)cc3OC2(c2ccc3c(c2)OCO3)C1c1ccccc1` (stereo not drawn) [Reference Compound 3, Methyl 4′-demethoxy-3′,4′-methylenedioxyrocaglate], the GI50 (A549 [3]) was 56 nM, the CC50 (THP-1 cells [4]) was greater than 5000 nM and the CC50 (A549 cells [5]) was greater than 5000 nM.
Work on `COC(=O)[C@H]1[C@@H](O)[C@@]2(O)c3c(OC)cc(OC4OC(C(COC(C)=O)OC(C)=O)COC4OC)cc3O[C@@]2(c2ccc(OC)cc2)[C@@H]1c1ccccc1` (stereo partly drawn) [Compound A′] yielded a pIC50 (THP-1 cells [2]; [15]) of 9.52.
With `CC[C@]1(O)C[C@@H]2CN(CCc3c([nH]c4ccccc34)[C@@](C(=O)OC)(c3cc4c(cc3OC)N(C)[C@H]3[C@@](O)(C(=O)OC)[C@H](OC(C)=O)[C@]5(CC)C=CCN6CC[C@]43[C@@H]65)C2)C1` [vinblastin, reference compound] the “cell cycle phase accumulation” value (A549 cells [1]; A549, 10 μM vinblastin) was “majority of cells arresting in the G2/M phases of the cell cycle”.
In the case of `COc1cccc2c1C(=O)c1c(O)c3c(c(O)c1C2=O)C[C@@](O)(C(=O)CO)C[C@@H]3O[C@H]1C[C@H](N)[C@H](O)[C@H](C)O1` [doxorubicin, reference compound], the SA-β-gal activity (A549 cells [6]) was “exhibited SA-β-gal activity”.
`COc1ccc(C23Oc4cc(OC)cc(OC)c4C2(O)C(O)CC3c2ccccc2)cc1` (stereo not drawn) [Reference Compound 1, Rocaglaol] was tested, and the GI50 (A549 [3]) was 3980 nM, the CC50 (THP-1 cells [4]) was greater than 5000 nM and the CC50 (A549 cells [5]) was greater than 5000 nM.
Work on `COC(=O)[C@H]1[C@@H](O)[C@@]2(O)c3c(OC)cc(OC4OC(C(O)CO)COC4OC)cc3O[C@@]2(c2ccc(OC)cc2)[C@@H]1c1ccccc1` (single isomer, unassigned) [Compound B] yielded a pIC50 (THP-1 cells [7]) of 8.52, a pIC50 (A549 cells [8]) of 8.40 and a pIC50 (A549 cells [9]) of 8.00. It also gave a pIC50 [10] of 5.30, a pIC50 (THP-1 cells [11]) of 8.52 and a pIC50 (THP-1 cells [2]; THP-1 cells, 18 hours of culture, read-out: IC50 WST-1 Reduction) of 7.40. For the same compound, the pIC50 (THP-1 cells [2]; [15]) was 8.82, the “cell cycle phase accumulation” value (K562 leukemic cells) was “characteristic accumulation of cells in G2/M phases of the cell cycle” and the pIC50 [12] was 7.82. For the same compound, the CC50 (A549 [13]) was 12 nM, the CC50 (THP-1) was 15 nM and the CC50 (K562) was 15 nM. It also gave a CC50 (SF268) of 22 nM and a CC50 (PC3) of 12 nM.
`COc1cc(OC)c2c(c1)OC1(c3ccc4c(c3)OCO4)C(c3ccccc3)CC(O)C21O` (stereo not drawn) [Reference Compound 2, 4′-Demethoxy-3′,4′-methylenedioxyrocaglaol] was tested, and the GI50 (A549 [3]) was 389 nM, the CC50 (THP-1 cells [4]) was greater than 5000 nM and the CC50 (A549 cells [5]) was greater than 5000 nM.
For `CC(=O)O[C@H]1C(=O)[C@@]2(C)[C@H]([C@H](OC(=O)c3ccccc3)[C@]3(O)C[C@H](OC(=O)[C@H](O)[C@@H](NC(=O)c4ccccc4)c4ccccc4)C(C)=C1C3(C)C)[C@]1(OC(C)=O)CO[C@@H]1C[C@@H]2O` [paclitaxel, reference compound], the “cell cycle phase accumulation” value (A549 cells [1]; A549, 1 μM paclitaxel) was “majority of cells arresting in the G2/M phases of the cell cycle” and the “cell cycle phase accumulation” value (THP-1 cells [14]) was “caused cells to accumulate in the G2/M phases of the cell cycle”.
